Calls of active or inactive are those of the source. The calls are words filed in the database; no cut-off is given here.
Tests used:
[1] = target: T1, von Hippel-Lindau disease tumor suppressor/Casein kinase I isoform delta (Homo sapiens, UniProt P48730+P40337); test: PROTAC activity at VHL/full length N-terminal Nano-luc fused CK1 delta (unknown origin) transfected in HEK293T cells incubated for 2 hrs followed by substrate addition by NanoBRET target engagement assay; type: cell-based
Target sequence in this assay (P40337 whole entry, looked up, the tested form may be a part, canonical isoform): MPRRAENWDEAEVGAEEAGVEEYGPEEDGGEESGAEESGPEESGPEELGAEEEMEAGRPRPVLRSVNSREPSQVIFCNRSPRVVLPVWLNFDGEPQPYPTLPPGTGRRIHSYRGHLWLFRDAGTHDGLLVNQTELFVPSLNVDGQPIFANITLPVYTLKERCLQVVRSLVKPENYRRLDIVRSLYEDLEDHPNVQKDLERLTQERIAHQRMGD
Target sequence in this assay (P48730 whole entry, looked up, the tested form may be a part, canonical isoform): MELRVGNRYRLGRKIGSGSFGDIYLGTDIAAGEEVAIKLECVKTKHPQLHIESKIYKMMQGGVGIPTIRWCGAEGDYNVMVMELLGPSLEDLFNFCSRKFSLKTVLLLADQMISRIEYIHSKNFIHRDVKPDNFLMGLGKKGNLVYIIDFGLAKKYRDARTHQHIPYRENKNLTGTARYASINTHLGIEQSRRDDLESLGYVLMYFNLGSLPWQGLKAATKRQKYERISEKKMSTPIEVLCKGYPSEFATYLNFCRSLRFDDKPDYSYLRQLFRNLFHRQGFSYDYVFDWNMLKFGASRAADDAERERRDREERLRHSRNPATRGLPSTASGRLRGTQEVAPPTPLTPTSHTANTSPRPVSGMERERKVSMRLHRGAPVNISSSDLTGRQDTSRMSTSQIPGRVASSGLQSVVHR

[2] = target: T1, von Hippel-Lindau disease tumor suppressor/Casein kinase I isoform delta; test: PROTAC activity at VHL/Hibit-fused CK1 delta in human MV4-11 cells assessed as degradation of CK1-delta incubated for 6 hrs by Nano-Glo HiBiT assay relative to control; type: cell-based
Target sequence in this assay (P40337 whole entry, looked up, the tested form may be a part, canonical isoform): as the sequence (P40337 whole entry, looked up, the tested form may be a part, canonical isoform) above
Target sequence in this assay (P48730 whole entry, looked up, the tested form may be a part, canonical isoform): as the sequence (P48730 whole entry, looked up, the tested form may be a part, canonical isoform) above

[3] = target: T2, von Hippel-Lindau disease tumor suppressor/Casein kinase I isoform alpha (Homo sapiens) (UniProt P48729+P40337); test: PROTAC activity at VHL/Hibit-fused CK1 alpha in human MV4-11 cells assessed as degradation of CK1-alpha incubated for 6 hrs by Nano-Glo HiBiT assay relative to control; type: cell-based
T2 sequence (P40337 whole entry, looked up, the tested form may be a part, canonical isoform): as the sequence (P40337 whole entry, looked up, the tested form may be a part, canonical isoform) above
T2 sequence (P48729 whole entry, looked up, the tested form may be a part, canonical isoform): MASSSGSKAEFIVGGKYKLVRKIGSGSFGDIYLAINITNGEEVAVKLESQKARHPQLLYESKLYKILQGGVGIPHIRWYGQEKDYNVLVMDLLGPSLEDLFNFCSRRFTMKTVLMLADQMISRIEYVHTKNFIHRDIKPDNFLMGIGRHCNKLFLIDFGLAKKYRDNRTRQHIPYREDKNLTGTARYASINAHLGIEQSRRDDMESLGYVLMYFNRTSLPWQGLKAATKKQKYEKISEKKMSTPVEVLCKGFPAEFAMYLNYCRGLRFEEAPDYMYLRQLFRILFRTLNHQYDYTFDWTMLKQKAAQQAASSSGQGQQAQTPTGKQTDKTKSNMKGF

[4] = target: T3, Protein cereblon/Casein kinase I isoform delta (Homo sapiens, UniProt P48730+Q96SW2); test: PROTAC activity at CRBN/full length N-terminal Nano-luc fused CK1 delta (unknown origin) transfected in HEK293T cells incubated for 2 hrs followed by substrate addition by NanoBRET target engagement assay; type: cell-based
Target sequence in this assay (P48730 whole entry, the tested form may be a part, canonical isoform): as the sequence (P48730 whole entry, looked up, the tested form may be a part, canonical isoform) above
Target sequence in this assay (Q96SW2 whole entry, the tested form may be a part, canonical isoform): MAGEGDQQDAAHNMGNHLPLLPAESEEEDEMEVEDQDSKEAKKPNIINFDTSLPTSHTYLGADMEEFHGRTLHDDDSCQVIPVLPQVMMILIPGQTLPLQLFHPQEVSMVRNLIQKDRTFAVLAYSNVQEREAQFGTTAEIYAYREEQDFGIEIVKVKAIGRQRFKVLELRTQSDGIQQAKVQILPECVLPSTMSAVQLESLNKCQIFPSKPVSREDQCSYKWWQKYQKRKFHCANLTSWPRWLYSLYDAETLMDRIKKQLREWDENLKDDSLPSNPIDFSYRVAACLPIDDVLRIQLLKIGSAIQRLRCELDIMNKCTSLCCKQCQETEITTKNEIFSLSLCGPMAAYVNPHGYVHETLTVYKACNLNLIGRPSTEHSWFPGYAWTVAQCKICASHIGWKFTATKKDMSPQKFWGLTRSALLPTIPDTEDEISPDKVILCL

[5] = target: Cereblon/Casein kinase I alpha (Homo sapiens) (UniProt P48729+Q96SW2); test: PROTAC activity at CRBN/Hibit-fused CK1 alpha in human MV4-11 cells assessed as degradation of CK1-alpha incubated for 6 hrs by Nano-Glo HiBiT assay relative to control; type: cell-based
Sequence of Cereblon/Casein kinase I alpha (Homo sapiens) (P48729 2-337 limits assumed): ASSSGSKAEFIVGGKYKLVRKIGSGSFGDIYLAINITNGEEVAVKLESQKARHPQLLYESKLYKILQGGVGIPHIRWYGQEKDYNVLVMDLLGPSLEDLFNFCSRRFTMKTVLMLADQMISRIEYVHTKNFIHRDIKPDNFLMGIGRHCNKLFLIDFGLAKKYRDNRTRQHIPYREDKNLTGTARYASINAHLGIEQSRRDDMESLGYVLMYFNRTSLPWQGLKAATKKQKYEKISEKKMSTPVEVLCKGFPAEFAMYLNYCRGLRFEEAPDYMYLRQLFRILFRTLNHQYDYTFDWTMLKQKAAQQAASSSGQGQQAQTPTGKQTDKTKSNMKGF
Sequence of Cereblon/Casein kinase I alpha (Homo sapiens) (Q96SW2 whole entry partner, the tested form may be a part, canonical isoform): as the sequence (Q96SW2 whole entry, the tested form may be a part, canonical isoform) above

[6] = target: T3, Protein cereblon/Casein kinase I isoform delta; test: PROTAC activity at CRBN/Hibit-fused CK1 delta in human MV4-11 cells assessed as degradation of CK1-delta incubated for 6 hrs by Nano-Glo HiBiT assay relative to control; type: cell-based
Target sequence in this assay (P48730 whole entry, looked up, the tested form may be a part, canonical isoform): as the sequence (P48730 whole entry, looked up, the tested form may be a part, canonical isoform) above
Target sequence in this assay (Q96SW2 whole entry, looked up, the tested form may be a part, canonical isoform): as the sequence (Q96SW2 whole entry, the tested form may be a part, canonical isoform) above

[7] = target: T3, Protein cereblon/Casein kinase I isoform delta; test: PROTAC activity at CRBN/Hibit-fused CK1 delta in human MV4-11 cells assessed as degradation of CK1-delta at 10 nM incubated for 6 hrs by Nano-Glo HiBiT assay; type: cell-based
Target sequence in this assay (P48730 whole entry, looked up, the tested form may be a part, canonical isoform): as the sequence (P48730 whole entry, looked up, the tested form may be a part, canonical isoform) above
Target sequence in this assay (Q96SW2 whole entry, looked up, the tested form may be a part, canonical isoform): as the sequence (Q96SW2 whole entry, the tested form may be a part, canonical isoform) above

MV4-11 [8] = test: Cytotoxicity in human MV4-11 cells at <5 uM measured after 60 hrs by alamar blue assay; type: functional, cell-based
[9] = target: T1, von Hippel-Lindau disease tumor suppressor/Casein kinase I isoform delta; test: PROTAC activity at VHL/CK1 delta in HEK293 cells assessed as dephosphorylation of DVL3 at high concentration pretreated with LGK974 followed by compound addition and measured after 6 hrs by Western blot analysis; type: cell-based
Target sequence in this assay (P40337 whole entry, looked up, the tested form may be a part, canonical isoform): as the sequence (P40337 whole entry, looked up, the tested form may be a part, canonical isoform) above
Target sequence in this assay (P48730 whole entry, looked up, the tested form may be a part, canonical isoform): as the sequence (P48730 whole entry, looked up, the tested form may be a part, canonical isoform) above

[10] = target: T2, von Hippel-Lindau disease tumor suppressor/Casein kinase I isoform alpha (Homo sapiens); test: PROTAC activity at VHL/CK1 alpha in HEK293 cells assessed as induction of degradation of CK1 alpha at >10 uM by Western blot analysis; type: cell-based
[11] = target: T4, von Hippel-Lindau disease tumor suppressor/Casein kinase I isoform epsilon (Homo sapiens) (UniProt P49674+P40337); test: PROTAC activity at VHL/CK1 epsilon in HEK293 cells assessed as induction of degradation of CK1 epsilon at 0.01 to 30 uM by Western blot analysis; type: cell-based; details: dose 0.01-30 µM
T4 sequence (P40337 whole entry, looked up, canonical isoform): as the sequence (P40337 whole entry, looked up, the tested form may be a part, canonical isoform) above
T4 sequence (P49674 whole entry, looked up, canonical isoform): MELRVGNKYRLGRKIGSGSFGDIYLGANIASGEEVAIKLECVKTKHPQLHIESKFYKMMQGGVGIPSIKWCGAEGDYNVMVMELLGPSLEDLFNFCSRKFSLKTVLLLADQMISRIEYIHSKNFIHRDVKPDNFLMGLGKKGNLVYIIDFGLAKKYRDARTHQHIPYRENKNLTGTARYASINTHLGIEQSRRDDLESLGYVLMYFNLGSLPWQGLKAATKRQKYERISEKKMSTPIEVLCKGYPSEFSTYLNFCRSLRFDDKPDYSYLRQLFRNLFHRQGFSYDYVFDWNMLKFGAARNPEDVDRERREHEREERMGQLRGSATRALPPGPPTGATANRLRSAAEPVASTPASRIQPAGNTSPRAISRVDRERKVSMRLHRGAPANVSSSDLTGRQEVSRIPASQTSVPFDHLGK

[12] = target: T4, von Hippel-Lindau disease tumor suppressor/Casein kinase I isoform epsilon (Homo sapiens); test: PROTAC activity at VHL/CK1 epsilon in HEK293 cells assessed as induction of degradation of CK1 epsilon at upto 20 uM pretreated with LGK974 followed by compound addition and measured after 6 hrs by Western blot analysis; type: cell-based
[13] = target: T1, von Hippel-Lindau disease tumor suppressor/Casein kinase I isoform delta; test: PROTAC activity at VHL/CK1 delta in HEK293 cells assessed as induction of degradation of CK1 delta at upto 20 uM pretreated with LGK974 followed by compound addition and measured after 6 hrs by Western blot analysis; type: cell-based
Target sequence in this assay (P40337 whole entry, looked up, the tested form may be a part, canonical isoform): as the sequence (P40337 whole entry, looked up, the tested form may be a part, canonical isoform) above
Target sequence in this assay (P48730 whole entry, looked up, the tested form may be a part, canonical isoform): as the sequence (P48730 whole entry, looked up, the tested form may be a part, canonical isoform) above

MV4-11 [14] = test: Cytotoxicity in human MV4-11 cells at 10 uM measured after 72 hrs by alamar blue assay; type: functional, cell-based
[15] = target: T1, von Hippel-Lindau disease tumor suppressor/Casein kinase I isoform delta; test: PROTAC activity at VHL/CK1 delta in HEK293 cells assessed as induction of degradation of CK1 delta by Western blot analysis; type: cell-based
[16] = target: T4, von Hippel-Lindau disease tumor suppressor/Casein kinase I isoform epsilon (Homo sapiens); test: PROTAC activity at VHL/CK1 epsilon in HEK293 cells assessed as dephosphorylation of DVL3 at high concentration pretreated with LGK974 followed by compound addition and measured after 6 hrs by Western blot analysis; type: cell-based
[17] = target: T1, von Hippel-Lindau disease tumor suppressor/Casein kinase I isoform delta; test: PROTAC activity at VHL/Hibit-fused CK1 delta in human MV4-11 cells assessed as degradation of CK1-delta incubated for 6 hrs by Nano-Glo HiBiT assay; type: cell-based
[18] = target: T2, von Hippel-Lindau disease tumor suppressor/Casein kinase I isoform alpha (Homo sapiens); test: PROTAC activity at VHL/CK1 alpha in HEK293 cells assessed as induction of degradation of CK1 alpha by measuring maximum efficacy at 5 to 10 uM measured after 6 hrs by Western blot analysis relative to control; type: cell-based; details: dose 5-10 µM
[19] = target: T4, von Hippel-Lindau disease tumor suppressor/Casein kinase I isoform epsilon (Homo sapiens); test: PROTAC activity at VHL/CK1 epsilon in HEK293 cells assessed as induction of degradation of CK1 epsilon by measuring maximum efficacy at 5 to 10 uM measured after 6 hrs by Western blot analysis relative to control; type: cell-based; details: dose 5-10 µM
[20] = target: T1, von Hippel-Lindau disease tumor suppressor/Casein kinase I isoform delta; test: PROTAC activity at VHL/CK1 delta in HEK293 cells assessed as induction of degradation of CK1 delta by measuring maximum efficacy at 5 to 10 uM measured after 6 hrs by Western blot analysis relative to control; type: cell-based; details: dose 5-10 µM
Target sequence in this assay (P40337 whole entry, looked up, the tested form may be a part, canonical isoform): as the sequence (P40337 whole entry, looked up, the tested form may be a part, canonical isoform) above
Target sequence in this assay (P48730 whole entry, looked up, the tested form may be a part, canonical isoform): as the sequence (P48730 whole entry, looked up, the tested form may be a part, canonical isoform) above

[21] = target: T5, Casein kinase I isoform epsilon (Homo sapiens, UniProt P49674); test: Inhibition of CK1 epsilon in HEK293 cells at 5 to 10 uM measured after 6 hrs by Western blot analysis; type: cell-based; details: dose 5-10 µM
[22] = target: Casein kinase I isoform delta (Homo sapiens) (UniProt P48730); test: Inhibition of CK1 delta in HEK293 cells at 5 to 10 uM measured after 6 hrs by Western blot analysis; type: cell-based; details: dose 5-10 µM
[23] = target: T5, Casein kinase I isoform epsilon; test: Inhibition of CK1 epsilon (unknown origin)
[24] = Bioavailability in mouse; type: ADME, organism-based; details: in vivo

SMILES	Emax [1] [%]	Emax [2] [%]	Emax [3] [%]	EC50 [4] [nM]	Emax [5] [%]	Emax [6] [%]	other results
Cc1ncsc1-c1ccc(CNC(=O)[C@@H]2C[C@@H](O)CN2C(=O)[C@@H](NC(=O)CCOCCOCCOCCN2CCC(F)(Cn3cnc(-c4ccc(F)cn4)c3-c3ccnc4[nH]ccc34)CC2)C(C)(C)C)cc1	4.3	35	35.9				Activity (MV4-11 [8]): Active
Cc1ncsc1-c1ccc(CNC(=O)[C@@H]2C[C@@H](O)CN2C(=O)[C@@H](NC(=O)CC2CN(C(=O)CCOCCOCCOCCN3CCC(F)(Cn4cnc(-c5ccc(F)cn5)c4-c4ccnc5[nH]ccc45)CC3)C2)C(C)(C)C)cc1	6.4	< 10	< 10				
Cc1ncsc1-c1ccc(CNC(=O)[C@@H]2C[C@@H](O)CN2C(=O)[C@@H](NC(=O)CC2CCN(C(=O)CCOCCOCCOCCN3CCC(F)(Cn4cnc(-c5ccc(F)cn5)c4-c4ccnc5[nH]ccc45)CC3)CC2)C(C)(C)C)cc1	3.2	< 10	< 10				
Cc1ncsc1-c1ccc(CNC(=O)[C@@H]2C[C@@H](O)CN2C(=O)[C@@H](NC(=O)CC2CN(C(=O)CN3CCC(F)(Cn4cnc(-c5ccc(F)cn5)c4-c4ccnc5[nH]ccc45)CC3)C2)C(C)(C)C)cc1	2.4	21.7	< 10				
Cc1ncsc1-c1ccc(CNC(=O)[C@@H]2C[C@@H](O)CN2C(=O)[C@@H](NC(=O)CCOCCOCCN2CCC(F)(Cn3cnc(-c4ccc(F)cn4)c3-c3ccnc4[nH]ccc34)CC2)C(C)(C)C)cc1	1.8	50.8	17.3				DC50 [17]: 9270 nM; Emax [18]: > 50%; Emax [19]: > 50%; Emax [20]: > 50%
Cc1ncsc1-c1ccc(CNC(=O)[C@@H]2C[C@@H](O)CN2C(=O)[C@@H](NC(=O)CCOCCOCCOCCOCCN2CCC(F)(Cn3cnc(-c4ccc(F)cn4)c3-c3ccnc4[nH]ccc34)CC2)C(C)(C)C)cc1	2.8	< 10	< 10				
Cc1ncsc1-c1ccc(CNC(=O)[C@@H]2C[C@@H](O)CN2C(=O)[C@@H](NC(=O)CC2CN(C(=O)CCOCCOCCN3CCC(F)(Cn4cnc(-c5ccc(F)cn5)c4-c4ccnc5[nH]ccc45)CC3)C2)C(C)(C)C)cc1	6.3	< 10	< 10				
Cc1ncsc1-c1ccc(CNC(=O)[C@@H]2C[C@@H](O)CN2C(=O)[C@@H](NC(=O)CC2CCN(C(=O)CN3CCC(F)(Cn4cnc(-c5ccc(F)cn5)c4-c4ccnc5[nH]ccc45)CC3)CC2)C(C)(C)C)cc1	2	29.1	< 10				
CN1CCC(F)(Cn2cnc(-c3ccc(F)cn3)c2-c2ccnc3[nH]ccc23)CC1							IC50 [23]: 27.7 nM; bioavailability [24]: 0.57%; Activity (MV4-11 [8]): Active

The next lines start with results.

Emax [1] [%]	Emax [2] [%]	Emax [3] [%]	EC50 [4] [nM]	Emax [5] [%]	Emax [6] [%]	SMILES	other results
0.5	19.1	< 10				Cc1ncsc1-c1ccc(CNC(=O)[C@@H]2C[C@@H](O)CN2C(=O)[C@@H](NC(=O)Cc2ccc(CNC(=O)CN3CCC(F)(Cn4cnc(-c5ccc(F)cn5)c4-c4ccnc5[nH]ccc45)CC3)cc2)C(C)(C)C)cc1	
			467	16.1	34.4	O=C1CCC(N2C(=O)c3cccc(NCCOCCOCCOCCC(=O)N4CCC(F)(Cn5cnc(-c6ccc(F)cn6)c5-c5ccnc6[nH]ccc56)CC4)c3C2=O)C(=O)N1 (stereo unspecified)	
			7.7	20.2	36	O=C(CCOCCOCCOCCN1CCC(F)(Cn2cnc(-c3ccc(F)cn3)c2-c2ccnc3[nH]ccc23)CC1)NCCNc1cccc2c1C(=O)N(C1CCC(=O)NC1=O)C2=O (stereo unspecified)	Activity [7]: Active
			11.2	11.3	40.2	O=C(CCOCCOCCOCCOCCN1CCC(F)(Cn2cnc(-c3ccc(F)cn3)c2-c2ccnc3[nH]ccc23)CC1)NCCNc1cccc2c1C(=O)N(C1CCC(=O)NC1=O)C2=O (stereo unspecified)	Activity [7]: Active
			4.3	< 10	35	O=C1CCC(N2C(=O)c3cccc(NCCCCCC(=O)N4CCC(F)(Cn5cnc(-c6ccc(F)cn6)c5-c5ccnc6[nH]ccc56)CC4)c3C2=O)C(=O)N1 (stereo unspecified)	Activity [7]: Active
			9.2	< 10	14.4	O=C1CCC(N2C(=O)c3cccc(NCc4ccc(CC(=O)N5CCC(F)(Cn6cnc(-c7ccc(F)cn7)c6-c6ccnc7[nH]ccc67)CC5)cc4)c3C2=O)C(=O)N1 (stereo unspecified)	
2.4	< 10	< 10				Cc1ncsc1-c1ccc(CNC(=O)[C@@H]2C[C@H](O)CN2C(=O)[C@@H](NC(=O)CCCCCCC(=O)N2CCC(F)(Cn3cnc(-c4ccc(F)cn4)c3-c3ccnc4[nH]ccc34)CC2)C(C)(C)C)cc1	Activity [9]: Active; Activity [10]: Weak_effect; Activity [11]: Weak_effect; Activity [12]: inactive; Activity [13]: inactive; Activity (MV4-11 [14]): Active; Compound Showed Milder Cytotoxic Effect; DC50 [15]: 200 nM; Activity [16]: Active
			16	12.6	< 10	O=C(COc1cccc2c1C(=O)N(C1CCC(=O)NC1=O)C2=O)NCCOCCOCCOCCC(=O)N1CCC(F)(Cn2cnc(-c3ccc(F)cn3)c2-c2ccnc3[nH]ccc23)CC1 (stereo unspecified)	
			4.6	19.7	14.8	O=C(COc1cccc2c1C(=O)N(C1CCC(=O)NC1=O)C2=O)NCc1ccc(CC(=O)N2CCC(F)(Cn3cnc(-c4ccc(F)cn4)c3-c3ccnc4[nH]ccc34)CC2)cc1 (stereo unspecified)	
			9.3	25	36.4	O=C(CCOCCOCCN1CCC(F)(Cn2cnc(-c3ccc(F)cn3)c2-c2ccnc3[nH]ccc23)CC1)NCCNc1cccc2c1C(=O)N(C1CCC(=O)NC1=O)C2=O (stereo unspecified)	Activity [7]: Active
			1.5		15	O=C1CCC(N2C(=O)c3cccc(OCCCCCCN4CCC(F)(Cn5cnc(-c6ccc(F)cn6)c5-c5ccnc6[nH]ccc56)CC4)c3C2=O)C(=O)N1 (stereo unspecified)	inhibition [21]: Active; inhibition [22]: Active
			9.3	< 10	18.2	O=C(COc1cccc2c1C(=O)N(C1CCC(=O)NC1=O)C2=O)NCCCCCC(=O)N1CCC(F)(Cn2cnc(-c3ccc(F)cn3)c2-c2ccnc3[nH]ccc23)CC1 (stereo unspecified)	

Reference: ChEMBL document CHEMBL6087472, “Development and Discovery of a Selective Degrader of Casein Kinases 1 δ/ε” (J Med Chem, 2025)
